The text below walks through data of patent US5256658A, “Angiotensin II inhibitors” (Ortho Pharmaceutical Corporation, priority 1993, dated 1993).

SMILES strings stand for the structures.

Experiment [1] concerns angiotensin II receptor. Put plainly: Screening Potential Angiotensin II Receptor Antagonists in Salt-Depleted Normotensive Rats. The format is in vivo, rat (Sprague-Dawley). As to the method: 2. Test Procedure for Screening Potential Angiotensin II Receptor Antagonists in Salt-Depleted Normotensive Rats
Purpose: This test is designed to detect hypotensive effects of a compound after oral dosing in normotensive animals made renin-dependent by salt depletion.
Method: Male 350-450 g Sprague-Dawley rats are implanted with teflon microcannulae via the middle caudal artery under 20 mg/kg intravenous Brevital® anesthesia and permitted a 4-7 day surgical recovery period. Throughout recovery and testing animals are individually housed unrestrained in standard rat metabolism cages and receive continuous 0.5 ml/h intra-arterial 0.25N saline infusion through a spring-shielded swivelling tether connected to an infusion/blood pressure recording system to maintain arterial cannula patency. Animals are maintained on Low Sodium (0.03%) Purina Rat Chow #5881 throughout the study. After the recovery period animals are given oral 50 mg/kg furosemide (Lasix, Hoechst-Roussel Pharmaceutical) doses on two consecutive days to produce marked diuresis and plasma volume depletion that makes maintenance of normal blood pressure highly dependent on function of the renin-angiotensin-aldosteronesystem. Three hours after the second furosemide dose, rats are given test compound uniformly suspended in 1% methylcellulose (n=3/dose level) or 1 mL 1% methylcellulose vehicle (n=3) orally by gavage and blood pressure is continuously recorded for 24 h using a Buxco computerized data recording system. Compound-induced changes in blood pressure are compared to concurrent vehicle control blood pressures in order to detect drug effect.
Interpretation: Prior to salt depletion, normotensive rats typically show a plasma renin activity (PRA, ng angiotensin I/mL plasma/h, RIA) of 0.7. After the salt-depletion protocol PRA values taken 3 h after the furosemide dose have risen to about 7.4.
Compounds that decrease blood pressure 10 or more mmHg (MAP) compared to concurrent control after oral dosing are considered active in this test. Maximum possible response is about -35 mmHg. […]

Experiment [2] has as its system angiotensin II receptor. Put plainly: Oral activity in the spontaneously hypertensive rat, as determined in test procedure 2. The format is in vivo.
In experiment [3] the target is T1, angiotensin II receptor (Oryctolagus cuniculus, UniProt P34976).
T1 sequence (P34976 1-359): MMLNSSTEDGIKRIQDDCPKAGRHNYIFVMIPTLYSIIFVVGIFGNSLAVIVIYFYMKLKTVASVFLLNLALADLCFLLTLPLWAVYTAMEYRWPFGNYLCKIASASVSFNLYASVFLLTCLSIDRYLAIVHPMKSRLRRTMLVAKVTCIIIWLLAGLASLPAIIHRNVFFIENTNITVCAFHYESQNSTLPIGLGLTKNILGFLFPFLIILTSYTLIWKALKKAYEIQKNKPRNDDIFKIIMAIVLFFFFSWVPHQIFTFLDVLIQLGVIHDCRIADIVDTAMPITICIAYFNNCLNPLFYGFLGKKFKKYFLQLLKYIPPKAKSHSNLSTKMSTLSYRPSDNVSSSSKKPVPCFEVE
From the text: Inhibition of Angiotensin II Dose-Response in Rabbit Thoracic Aorta:
Purpose: To identify competitive receptor antagonists of an angiotensin II-1 activity, i.e., angiotensin II-induced vasoconstriction in in vitro aortic rings.
Procedure: 1.8 to 2.3 kg New Zealand white rabbits are sacrificed with an intravenous sodium pentobarbital overdose and the thoracic aorta gently dissected free from the aortic root to the level of the diaphragm, into ice cold Krebs bicarbonate buffer. The aorta is gently freed of clots and adventitia and cleanly cut with a scalpel into 5 mm segments. Each ring is suspended from a Gould isotonic force transducer in a tissue bath containing 15 mL oxygenated Krebs bicarbonate buffer regulated at 37° C. Initial tension is adjusted to 4.0 g and equilibrated over three 20-min wash periods to achieve a baseline tension of 3.0 g. Graded angiotensin II doses are given cumulatively to achieve a maximal contraction. Three 20-min washes are performed to remove the initial angiotensin II effect. […]
Analysis: Angiotensin II vasoconstrictor tension in grams is expressed as a percent of maximal contraction for the before and after test compound angiotensin II dose-responses. Angiotensin II ED50 and ED90 values are determined from the angiotensin II dose-response curves generated before and after test compound. […]

For `CCCCc1nc(Cl)c(CO)n1Cc1ccc(-c2ccccc2-c2nn[nH]n2)cc1` [DuP-753], the blood pressure response entry with angiotensin II receptor [1] (normotensive rats that have not been salt-depleted) is listed as “does not change”. For the same compound, the “plasma renin activity (PRA)” value in the experiment on angiotensin II receptor [1] (salt-depleted rats after DuP-753 treatment, RIA) is on record as “about 41.4 ng angiotensin I/mL plasma/h”. Moreover, the “blood pressure decrease (mean arterial pressure, MAP)” value in the experiment on angiotensin II receptor [1] (salt-depleted rats, typical response) is given as “about 35 mmHg”.

Regarding `C[C@@H]1CN(Cc2ccc(-c3ccccc3-c3nn[nH]n3)cc2)C[C@H](C)O1` [cis-2,6-Dimethyl-4-[4-(2'-tetrazolophenyl)phenylmethyl]morpholine], in the experiment with angiotensin II receptor [2], the “maximum mean arterial pressure drop” value is 31 mm Hg and the oral activity entry is on record as “good oral activity”. In the experiment on angiotensin II receptor [2] (duration of blood pressure effect), the duration was determined as 12 h. The Kb at angiotensin II receptor [3] was 0.123 µM.
